Reference: US10227342B2 (ARIAD PHARMACEUTICALS, INC., priority 2014, dated 2019)

Assays:
Format in all cases: cell-based
[1] = biological target: human EGFR L858R and T790M double mutation (LT) (Homo sapiens (Human), UniProt P00533, L858R/T790M); assay: Ba/F3-EGFR L858R/T790M cell anti-proliferative assay (CellTiter 96 MTS, 72 h); settings: Ba/F3-EGFR L858R/T790M cells; for IC50: read-out: EGFR exon 21 L858R and T790M mutation IC50;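 for all read-outs here: Ba/F3 cells carrying the EGFR L858R/T790M double mutant are able to grow without IL-3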
human EGFR L858R and T790M double mutation (LT), sequence (P00533 25-1210 T790M/L858R): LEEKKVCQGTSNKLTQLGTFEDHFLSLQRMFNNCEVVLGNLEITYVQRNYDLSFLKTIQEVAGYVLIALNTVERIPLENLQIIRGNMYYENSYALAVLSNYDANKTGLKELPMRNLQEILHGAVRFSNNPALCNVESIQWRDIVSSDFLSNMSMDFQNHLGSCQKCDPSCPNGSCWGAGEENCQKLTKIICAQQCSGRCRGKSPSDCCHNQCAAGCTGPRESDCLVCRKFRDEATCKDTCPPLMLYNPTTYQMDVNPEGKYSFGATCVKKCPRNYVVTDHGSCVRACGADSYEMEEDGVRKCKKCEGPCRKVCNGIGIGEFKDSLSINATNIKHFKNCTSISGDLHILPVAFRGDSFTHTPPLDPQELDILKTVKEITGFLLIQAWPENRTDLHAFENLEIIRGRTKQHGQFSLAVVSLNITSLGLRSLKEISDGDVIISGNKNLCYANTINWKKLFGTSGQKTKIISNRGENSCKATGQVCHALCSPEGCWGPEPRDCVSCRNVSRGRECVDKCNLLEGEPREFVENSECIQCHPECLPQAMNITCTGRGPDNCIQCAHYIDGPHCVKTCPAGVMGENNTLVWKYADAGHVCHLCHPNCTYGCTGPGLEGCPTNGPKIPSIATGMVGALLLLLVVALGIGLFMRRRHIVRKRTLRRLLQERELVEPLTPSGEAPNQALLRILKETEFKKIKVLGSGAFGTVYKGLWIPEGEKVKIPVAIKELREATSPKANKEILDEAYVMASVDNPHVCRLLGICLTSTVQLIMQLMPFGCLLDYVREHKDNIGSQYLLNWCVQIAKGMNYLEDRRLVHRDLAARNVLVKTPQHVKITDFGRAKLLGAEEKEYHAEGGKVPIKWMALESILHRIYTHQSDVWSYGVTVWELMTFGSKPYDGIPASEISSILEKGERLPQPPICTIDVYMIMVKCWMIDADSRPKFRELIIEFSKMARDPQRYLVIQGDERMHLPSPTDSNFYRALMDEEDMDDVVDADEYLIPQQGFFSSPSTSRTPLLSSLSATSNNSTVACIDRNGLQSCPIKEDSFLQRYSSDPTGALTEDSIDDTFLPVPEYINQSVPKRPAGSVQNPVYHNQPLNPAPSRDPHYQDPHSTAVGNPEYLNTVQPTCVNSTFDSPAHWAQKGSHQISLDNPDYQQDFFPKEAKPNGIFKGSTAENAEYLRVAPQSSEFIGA
Description: An expression vector, pLVX-IRES puro (Clontech) coding for human EGFR L858R and T790M double mutation, was transfected into HEK293 cells by the Trans-Lentiviral ORF Packaging System (Thermo Scientific), to produce virus encoding EGFR L858R and T790M double mutations. […] Ba/F3 cells expressing EGFR L858R and T790M double mutation (named Ba/F3-EGFR L858R/T790M) can proliferate in the absence of IL-3. The anti-proliferative activity of compounds was determined as follows: BaF3-EGFR L858R/T790M cells seeded in 96 well plates (2500 cells/well) were treated with test compound (dissolved in DMSO) at a series of concentrations (4-fold dilution, top concentration: 10,000 nM). The plates were incubated for 72 h in a 37° C. incubator with 5% CO2, and the number of viable cells in each well were measured indirectly by CellTiter 96® Aqueous One Solution Cell Proliferation Assay (Promega; this assay is a colorimetric method for determining the number of viable cells through measurement of their metabolic activity by detection of enzymatic conversion of tetrazolium salts into blue formazan derivatives). Reagent (20 μL) was added into each well, and the plates were returned to the incubator for 2 h. The absorbance in each well was then measured at 490 nm using an Envision plate reader (Perkin Elmer).

[2] = biological target: Her2 exon 20 YVMA insertion (A775_G776ins YVMA) (Homo sapiens (Human), UniProt P04626, INS775YVMA); assay: Ba/F3-Her2 Exon20 YVMA cell anti-proliferative assay (CellTiter 96 MTS, 72 h); settings: Ba/F3-Her2 Exon20 YVMA cells
Description: Ba/F3 cells expressing Her2 Exon20 YVMA insertions (named Ba/F3-Her2 Exon20 YVMA) can proliferate in the absence of IL-3.

[3] = biological target: human EGFR E746-A750 deletion and T790M Mutation (DT) (Homo sapiens (Human), UniProt P00533, DEL746-750/T790M); assay: Ba/F3-EGFR-Del/T790M cell anti-proliferative assay (CellTiter 96 MTS, 72 h); settings: Ba/F3-EGFR-Del/T790M cells; for IC50: read-out: EGFR exon 19 deletion and T790M mutation IC50
human EGFR E746-A750 deletion and T790M Mutation (DT), sequence (P00533 other isoform, or with tags, fused parts or gaps T790M/del E746-A750): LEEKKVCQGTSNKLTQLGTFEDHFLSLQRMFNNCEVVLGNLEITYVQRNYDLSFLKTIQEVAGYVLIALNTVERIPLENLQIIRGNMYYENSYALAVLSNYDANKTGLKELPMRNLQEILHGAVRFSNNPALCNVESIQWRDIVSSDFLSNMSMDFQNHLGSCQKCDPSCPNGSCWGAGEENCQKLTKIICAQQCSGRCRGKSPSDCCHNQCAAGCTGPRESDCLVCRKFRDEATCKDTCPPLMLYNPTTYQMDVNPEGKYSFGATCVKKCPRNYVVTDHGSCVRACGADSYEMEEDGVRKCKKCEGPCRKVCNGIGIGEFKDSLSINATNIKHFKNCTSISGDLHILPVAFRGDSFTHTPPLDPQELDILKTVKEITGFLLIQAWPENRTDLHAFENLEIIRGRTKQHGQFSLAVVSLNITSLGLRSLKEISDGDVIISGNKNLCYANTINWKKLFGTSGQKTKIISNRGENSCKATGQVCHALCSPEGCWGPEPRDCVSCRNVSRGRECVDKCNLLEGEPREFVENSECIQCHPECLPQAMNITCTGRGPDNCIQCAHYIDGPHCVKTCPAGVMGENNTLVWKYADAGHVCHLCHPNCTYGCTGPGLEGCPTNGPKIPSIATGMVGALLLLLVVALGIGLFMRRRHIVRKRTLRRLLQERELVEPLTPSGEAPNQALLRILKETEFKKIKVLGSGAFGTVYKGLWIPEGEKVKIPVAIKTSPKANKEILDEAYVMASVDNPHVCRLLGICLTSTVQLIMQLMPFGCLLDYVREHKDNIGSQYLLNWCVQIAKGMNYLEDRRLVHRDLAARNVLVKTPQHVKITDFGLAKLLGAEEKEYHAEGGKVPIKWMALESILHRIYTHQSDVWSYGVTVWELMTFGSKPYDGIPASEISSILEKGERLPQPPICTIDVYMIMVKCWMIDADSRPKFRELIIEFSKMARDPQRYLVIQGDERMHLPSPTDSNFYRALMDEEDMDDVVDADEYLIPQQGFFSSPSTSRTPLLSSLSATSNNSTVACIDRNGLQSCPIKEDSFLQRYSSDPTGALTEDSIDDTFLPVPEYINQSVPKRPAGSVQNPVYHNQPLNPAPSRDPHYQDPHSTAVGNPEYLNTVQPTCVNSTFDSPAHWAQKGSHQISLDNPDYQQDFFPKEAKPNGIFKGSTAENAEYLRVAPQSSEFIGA
Description: An expression vector, pLVX-IRES puro (Clontech) coding for human EGFR E746-A750 deletion and T790M Mutation, was transfected into HEK293 cells by the Trans-Lentiviral ORF Packaging System (Thermo Scientific), to produce virus encoding EGFR exon 19 deletion and T790M mutations. […] Ba/F3 cells expressing EGFR E746-A750 deletion and T790M Mutation (named Ba/F3-EGFR-Del/T790M) can proliferate in the absence of IL-3. The anti-proliferative activity of compounds was determined as follows: BaF3-EGFR-Del/T790M cells seeded in 96 well plates (2500 cells/well) were treated with test compound (dissolved in DMSO) at a series of concentrations (4-fold dilution, top concentration: 10,000 nM). The plates were incubated for 72 h in a 37° C. incubator with 5% CO2, and the number of viable cells in each well were measured indirectly by CellTiter 96® Aqueous One Solution Cell Proliferation Assay (Promega; this assay is a colorimetric method for determining the number of viable cells through measurement of their metabolic activity by detection of enzymatic conversion of tetrazolium salts into blue formazan derivatives). Reagent (20 μL) was added into each well, and the plates were returned to the incubator for 2 h. The absorbance in each well was then measured at 490 nm using an Envision plate reader (Perkin Elmer).

[4] = biological target: human EGFR exon 20 insertion NPG (H773_V774insNPG) (Homo sapiens, UniProt P00533, INS773NPG, cells depend on it); assay: Ba/F3-EGFR-Exon20-NPG cell anti-proliferative assay (CellTiter 96 MTS, 72 h); settings: read-out: EGFR exon 20 NPG insertion IC50
human EGFR exon 20 insertion NPG (H773_V774insNPG), sequence (P00533 with tags, fused parts or gaps INS773NPG limits assumed): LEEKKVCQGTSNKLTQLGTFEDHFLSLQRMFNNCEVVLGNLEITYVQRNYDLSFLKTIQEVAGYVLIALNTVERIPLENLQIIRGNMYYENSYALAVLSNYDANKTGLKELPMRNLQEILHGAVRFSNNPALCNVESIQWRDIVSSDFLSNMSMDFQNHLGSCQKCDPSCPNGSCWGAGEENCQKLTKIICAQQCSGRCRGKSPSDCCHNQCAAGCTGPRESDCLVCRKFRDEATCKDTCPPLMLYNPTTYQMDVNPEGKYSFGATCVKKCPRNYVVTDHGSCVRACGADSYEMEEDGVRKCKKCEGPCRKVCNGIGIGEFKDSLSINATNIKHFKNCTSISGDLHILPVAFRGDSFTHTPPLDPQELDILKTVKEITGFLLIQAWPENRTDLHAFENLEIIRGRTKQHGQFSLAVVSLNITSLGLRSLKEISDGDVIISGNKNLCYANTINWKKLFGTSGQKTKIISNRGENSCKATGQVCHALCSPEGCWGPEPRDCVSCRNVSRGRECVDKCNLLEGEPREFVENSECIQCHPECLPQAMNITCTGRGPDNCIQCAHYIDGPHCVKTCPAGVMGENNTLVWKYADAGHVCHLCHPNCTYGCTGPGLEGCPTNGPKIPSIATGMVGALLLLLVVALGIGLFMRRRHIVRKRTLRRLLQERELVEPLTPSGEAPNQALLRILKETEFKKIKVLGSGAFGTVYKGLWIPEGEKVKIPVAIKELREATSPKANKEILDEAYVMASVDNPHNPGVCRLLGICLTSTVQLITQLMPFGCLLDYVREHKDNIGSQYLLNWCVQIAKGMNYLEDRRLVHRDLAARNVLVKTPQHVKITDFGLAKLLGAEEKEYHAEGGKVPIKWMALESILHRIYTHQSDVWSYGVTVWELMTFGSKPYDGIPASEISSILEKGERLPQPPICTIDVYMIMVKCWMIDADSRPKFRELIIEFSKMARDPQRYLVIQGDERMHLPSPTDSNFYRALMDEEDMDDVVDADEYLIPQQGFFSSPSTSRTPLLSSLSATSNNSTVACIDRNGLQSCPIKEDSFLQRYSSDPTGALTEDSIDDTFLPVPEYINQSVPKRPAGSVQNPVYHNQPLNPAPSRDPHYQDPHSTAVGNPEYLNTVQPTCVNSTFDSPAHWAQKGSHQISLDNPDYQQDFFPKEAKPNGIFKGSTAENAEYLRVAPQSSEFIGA
Description: (§1) Ba/F3 cells expressing EGFR exon 20 insertions (named Ba/F3-EGFR-Exon20-NPG or Ba/F3-EGFR-Exon20-ASV) can proliferate in the absence of IL-3. The anti-proliferative activity of compounds were determined as follows: BaF3-EGFR-Exon20 cells (NPG or ASV) seeded in 96 well plates (2500 cells/well) were treated with test compound (dissolved in DMSO) at a series of concentrations (4-fold dilution, top concentration: 10,000 nM). The plates were incubated for 72 h in a 37° C. incubator with 5% CO2, and the number of viable cells in each well were measured indirectly by CellTiter 96® Aqueous One Solution Cell Proliferation Assay (Promega) This assay is a colorimetric method for determining the number of viable cells through measurement of their metabolic activity by detection of enzymatic conversion of tetrazolium salts into blue formazan derivatives. Reagent (20 μL) was added into each well, and the plates were returned to the incubator for 2 h. The absorbance in each well was then measured at 490 nm using an Envision plate reader (Perkin Elmer).

[5] = biological target: human EGFR exon 20 insertion ASV (V769_D770insASV) (Homo sapiens (Human), UniProt P00533, INS769ASV); assay: Ba/F3-EGFR-Exon20-ASV cell anti-proliferative assay (CellTiter 96 MTS, 72 h); settings: Ba/F3-EGFR-Exon20-ASV cells;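 note: Ba/F3 cells bearing the EGFR exon 20 ASV insertion, a line able to proliferate without IL-3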
human EGFR exon 20 insertion ASV (V769_D770insASV), sequence (P00533 other isoform, or with tags, fused parts or gaps ins ASV behind 769): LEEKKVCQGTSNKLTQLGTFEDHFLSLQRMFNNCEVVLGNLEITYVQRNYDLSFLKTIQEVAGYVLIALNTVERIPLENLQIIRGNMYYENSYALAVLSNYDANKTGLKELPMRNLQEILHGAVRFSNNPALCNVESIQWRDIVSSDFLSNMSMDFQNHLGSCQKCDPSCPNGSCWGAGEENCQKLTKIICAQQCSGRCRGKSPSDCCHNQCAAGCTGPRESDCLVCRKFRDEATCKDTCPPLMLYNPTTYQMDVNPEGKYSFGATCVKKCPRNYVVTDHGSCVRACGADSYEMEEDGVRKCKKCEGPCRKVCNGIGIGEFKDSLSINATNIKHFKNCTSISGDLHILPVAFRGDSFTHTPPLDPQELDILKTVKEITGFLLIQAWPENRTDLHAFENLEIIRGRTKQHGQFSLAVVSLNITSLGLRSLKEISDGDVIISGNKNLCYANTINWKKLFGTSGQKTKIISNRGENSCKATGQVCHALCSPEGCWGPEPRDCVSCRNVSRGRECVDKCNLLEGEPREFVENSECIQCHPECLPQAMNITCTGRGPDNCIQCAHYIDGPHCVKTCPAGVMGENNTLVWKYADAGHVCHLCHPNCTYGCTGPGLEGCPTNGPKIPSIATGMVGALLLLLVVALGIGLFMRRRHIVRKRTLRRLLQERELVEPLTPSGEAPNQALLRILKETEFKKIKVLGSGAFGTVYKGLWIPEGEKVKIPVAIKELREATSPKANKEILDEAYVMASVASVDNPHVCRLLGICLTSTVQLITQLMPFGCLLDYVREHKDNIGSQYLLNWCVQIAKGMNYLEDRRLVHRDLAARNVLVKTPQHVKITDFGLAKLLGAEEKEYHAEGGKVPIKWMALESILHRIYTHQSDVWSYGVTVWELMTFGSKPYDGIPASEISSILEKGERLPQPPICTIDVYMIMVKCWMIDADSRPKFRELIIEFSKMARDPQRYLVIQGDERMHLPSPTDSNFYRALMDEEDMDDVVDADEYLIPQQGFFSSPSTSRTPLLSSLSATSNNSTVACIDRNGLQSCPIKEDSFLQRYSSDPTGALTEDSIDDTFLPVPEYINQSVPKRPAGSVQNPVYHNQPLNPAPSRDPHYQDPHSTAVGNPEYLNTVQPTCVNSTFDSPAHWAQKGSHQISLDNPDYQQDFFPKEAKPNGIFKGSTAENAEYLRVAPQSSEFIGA
Description: as §1

| SMILES | IC50 [1] [µM] | IC50 [2] [µM] | IC50 [3] [µM] | IC50 [4] [µM] | IC50 [5] [µM] | EGFR exon 21 L858R and T790M mutation IC50 [1] | EGFR exon 19 deletion and T790M mutation IC50 [3] |
| --- | --- | --- | --- | --- | --- | --- | --- |
| C=CC(=O)Nc1cc(Nc2ncc(C(=O)OC(C)C)c(-c3cn(C)c4ccccc34)n2)c(OC)cc1N(C)C[C@H]1CCCN1C [Example 36, (R)-isopropyl 2-((5-acrylamido-2-methoxy-4-(methyl((1-methylpyrrolidin-2-yl)methyl)amino)phenyl)amino)-4-(1-methyl-1H-indol-3-yl)pyrimidine-5-carboxylate] | < 0.1 | < 0.1 | < 0.1 | < 0.1 | < 0.1 |  |  |
| C=CC(=O)Nc1cc(Nc2ncc(C(=O)OC(C)C)c(-c3cn(C)c4ccccc34)n2)c(OC)cc1N(C)CCN(C)C [Example 10, isopropyl 2-((5-acrylamido-4-((2-(dimethylamino)ethyl)(methyl)amino)-2-methoxyphenyl)amino)-4-(1-methyl-1H-indol-3-yl)pyrimidine-5-carboxylate] | < 0.1 | < 0.1 | < 0.1 | < 0.1 | < 0.1 |  |  |
| C=CC(=O)Nc1cc(Nc2nccc(-c3c(-c4ccc(OCc5ccccn5)c(Cl)c4)n(C)c4ccccc34)n2)c(OC)cc1N(C)CCN(C)C [Example 5, N-(5-((4-(2-(3-chloro-4-(pyridin-2-ylmethoxy)phenyl)-1-methyl-1H-indol-3-yl)pyrimidin-2-yl)amino)-2-((2-(dimethylamino)ethyl)(methyl)amino)-4-methoxyphenyl)acrylamide] |  | 0.1 to 0.5 |  | 0.1 to 0.5 | 0.1 to 0.5 | B (Group B compounds have an IC50 value for the indicated mutant between about 100 to about 500 nM) | B (Group B compounds have an IC50 value for the indicated mutant between about 100 to about 500 nM) |
| C=CC(=O)Nc1cc(Nc2ncc(Cl)c(-c3cnn4ccccc34)n2)c(OC)cc1N(C)CCN(C)C [Example 52, N-(5-((5-chloro-4-(pyrazolo[1,5-a]pyridin-3-yl)pyrimidin-2-yl)amino)-2-((2-(dimethylamino)ethyl)-(methyl)amino)-4-methoxyphenyl)-acrylamide] | < 0.1 | 0.1 to 0.5 | < 0.1 | < 0.1 | < 0.1 |  |  |
| C=CC(=O)Nc1cc(Nc2nccc(-c3c(-c4ccccc4)n(C)c4ccccc34)n2)c(OC)cc1N(C)CCN(C)C [Example 7, N-(2-((2-(dimethylamino)ethyl)(methyl)amino)-4-methoxy-5-((4-(1-methyl-2-phenyl-1H-indol-3-yl)pyrimidin-2-yl)amino)phenyl)acrylamide] | < 0.1 | 0.1 to 0.5 | < 0.1 | < 0.1 | 0.1 to 0.5 |  |  |
| C=CC(=O)Nc1cc(Nc2nccc(-c3c(C(=O)NCCOC)n(C)c4ccccc34)n2)c(OC)cc1N(C)CCN(C)C [Example 93, 3-(2-((5-acrylamido-4-((2-(dimethylamino)ethyl)(methyl)amino)-2-methoxyphenyl)amino)pyrimidin-4-yl)-N-(2-methoxyethyl)-1-methyl-1H-indole-2-carboxamide] |  | > 1 |  |  | 0.5 to 1 | C (Group C compounds have an IC50 value for the indicated mutant between greater than about 500 to about 1 μM) | B (Group B compounds have an IC50 value for the indicated mutant between about 100 to about 500 nM) |
| C=CC(=O)Nc1cc(Nc2nccc(-c3cn(C)c4cc(-c5cnn(C)c5)ccc34)n2)c(OC)cc1N(C)CCN(C)C [Example 95, N-(2-((2-(dimethylamino)ethyl)(methyl)amino)-4-methoxy-5-((4-(1-methyl-6-(1-methyl-1H-pyrazol-4-yl)-1H-indol-3-yl)pyrimidin-2-yl)amino)phenyl)acrylamide] | < 0.1 | 0.1 to 0.5 | < 0.1 |  | < 0.1 |  |  |
| C=CC(=O)Nc1cc(Nc2nccc(-c3c(C(=O)NC)n(C)c4ccccc34)n2)c(OC)cc1N(C)CCN(C)C [Example 91, 3-(2-((5-acrylamido-4-((2-(dimethylamino)ethyl)(methyl)amino)-2-methoxyphenyl)amino)pyrimidin-4-yl)-N,1-dimethyl-1H-indole-2-carboxamide] |  | 0.5 to 1 | < 0.1 |  | 0.1 to 0.5 | B (Group B compounds have an IC50 value for the indicated mutant between about 100 to about 500 nM) |  |
| C=CC(=O)Nc1cc(Nc2ncc(Cl)c(-c3c[nH]c4ccccc34)n2)c(OC)cc1N(C)CCN(C)C [Example 56, N-(5-((5-chloro-4-(1H-indol-3-yl)pyrimidin-2-yl)amino)-2-((2-(dimethylamino)ethyl)(methyl)amino)-4-methoxyphenyl)acrylamide] | < 0.1 | < 0.1 | < 0.1 | < 0.1 | < 0.1 |  |  |
| C=CC(=O)Nc1cc(Nc2ncc(C(=O)OCC)c(-c3cn(C)c4ccccc34)n2)c(OC)cc1N(C)CCN(C)C [Example 9, ethyl 2-((5-acrylamido-4-((2-(dimethylamino)ethyl)(methyl)amino)-2-methoxyphenyl)amino)-4-(1-methyl-1H-indol-3-yl)pyrimidine-5-carboxylate] | < 0.1 | < 0.1 | < 0.1 | < 0.1 | < 0.1 |  |  |
| C=CC(=O)Nc1cc(Nc2ncc(C(=O)OC(C)C)c(-c3cn(C)c4ccccc34)n2)c(OC)cc1N(C)C[C@@H]1CCCN1C [Example 35, (S)-isopropyl 2-((5-acrylamido-2-methoxy-4-(methyl((1-methylpyrrolidin-2-yl)methyl)amino)phenyl)amino)-4-(1-methyl-1H-indol-3-yl)pyrimidine-5-carboxylate] | < 0.1 | < 0.1 | < 0.1 | < 0.1 | < 0.1 |  |  |
| C=CC(=O)Nc1cc(Nc2ncc(C(=O)OC(C)C)c(-c3cn(C)c4ccccc34)n2)c(OC)cc1N(C)CCNC [Example 58, isopropyl 2-((5-acrylamido-2-methoxy-4-(methyl(2-(methylamino)ethyl)-amino)phenyl)amino)-4-(1-methyl-1H-indol-3-yl)pyrimidine-5-carboxylate] | < 0.1 | < 0.1 | < 0.1 | < 0.1 | < 0.1 |  |  |
| C=CC(=O)Nc1cc(Nc2nccc(-c3c(C(=O)OC)n(C)c4ccccc34)n2)c(OC)cc1N(C)CCN(C)C [Example 86, methyl 3-(2-((5-acrylamido-4-((2-(dimethylamino)ethyl)(methyl)amino)-2-methoxyphenyl)amino)pyrimidin-4-yl)-1-methyl-1H-indole-2-carboxylate] | < 0.1 | 0.5 to 1 | < 0.1 |  | < 0.1 |  |  |
| C=CC(=O)Nc1cc(Nc2ncc(C(=O)OC(C)C)c(-c3c[nH]c4ccccc34)n2)c(OC)cc1N(C)CCN(C)C [Example 30, isopropyl 2-((5-acrylamido-4-((2-(dimethylamino)ethyl)(methyl)amino)-2-methoxyphenyl)amino)-4-(1H-indol-3-yl)pyrimidine-5-carboxylate] | < 0.1 | < 0.1 | < 0.1 | < 0.1 | < 0.1 |  |  |
| C=CC(=O)Nc1cc(Nc2ncc(NC(=O)NC)c(-c3cn(C)c4ccccc34)n2)c(OC)cc1N(C)CCN(C)C [Example 99, N-(2-((2-(dimethylamino)ethyl)(methyl)amino)-4-methoxy-5-((4-(1-methyl-1H-indol-3-yl)-5-(3-methylureido)pyrimidin-2-yl)amino)phenyl)acrylamide] | > 1 | > 1 | > 1 |  | 0.5 to 1 |  |  |
| C=CC(=O)Nc1cc(Nc2nccc(-c3c(C(N)=O)n(C)c4ccccc34)n2)c(OC)cc1N(C)CCN(C)C [Example 90, 3-(2-((5-acrylamido-4-((2-(dimethylamino)ethyl)(methyl)amino)-2-methoxyphenyl)amino)pyrimidin-4-yl)-1-methyl-1H-indole-2-carboxamide] | < 0.1 | 0.5 to 1 | < 0.1 |  | 0.1 to 0.5 |  |  |
| C=CC(=O)Nc1cc(Nc2nccc(-c3cn(C)c4c(C(=O)OC(C)C)cccc34)n2)c(OC)cc1N(C)CCN(C)C [Example 85, isopropyl 3-(2-((5-acrylamido-4-((2-(dimethylamino)ethyl)(methyl)amino)-2-methoxyphenyl)amino)pyrimidin-4-yl)-1-methyl-1H-indole-7-carboxylate] | < 0.1 | 0.1 to 0.5 | < 0.1 |  | 0.1 to 0.5 |  |  |
| C=CC(=O)Nc1cc(Nc2nccc(-c3cn(CC(N)=O)c4ccccc34)n2)c(OC)cc1N(C)CCN(C)C [Example 70, N-(5-((4-(1-(2-amino-2-oxoethyl)-1H-indol-3-yl)pyrimidin-2-yl)amino)-2-((2-(dimethylamino)ethyl)(methyl)amino)-4-methoxyphenyl)acrylamide] | < 0.1 | 0.1 to 0.5 | < 0.1 |  | < 0.1 |  |  |
